The values below come from ChEMBL document CHEMBL1201862, “PubChem BioAssay data set” (2004).

Some test systems named below: SF-539; OVCAR-3; ACHN; SF-295; HL-60; SK-OV-3; A498; LOX IMVI; OVCAR-8; NCI-H522; M14; TK-10; HCT-15; KM12; SN12C; COLO 205; SW-620; Malme-3M; RXF 393.
Common to all, as to experiment: growth of human tumour cells (NCI), 48 h

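Cultured in 96-well plates, cells were exposed to test compound for 48 hours across five concentrations. GI50 = concentration required for 50% inhibition of growth.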 Activity calls are given as the source filed them. Rule as the data show it: active = GI50 up to about 1.1 µM and inactive = higher. Bounds are passed on as bounds.

For the molecule `Nn1c(CCCl)nc2c(Br)cc(Br)cc2c1=O`, the GI50 in the assay on SF-539 was 40.7 µM (inactive); in the assay with OVCAR-3 it was 9.62 µM (inactive); with ACHN it was 22.9 µM (inactive); with SF-295, 31.7 µM (inactive); with HL-60, 2.77 µM (inactive); with SK-OV-3, 33.1 µM (inactive). Moreover, the GI50 was 35.7 µM (inactive) in the assay on A498; 25.5 µM (inactive) in the assay on LOX IMVI; 41.5 µM (inactive) with OVCAR-8; 15.9 µM (inactive) with NCI-H522; 30.3 µM (inactive) in the assay on M14; 34.3 µM (inactive) in the assay on TK-10. In addition, the GI50 was 22.1 µM in the assay with HCT-15; 18.7 µM (inactive) in the assay on KM12; 30.8 µM (inactive) with SN12C; 23.9 µM (inactive) in the assay on COLO 205; 20.5 µM (inactive) in the assay with SW-620; > 69.5 µM (inactive) with Malme-3M. In addition, the GI50 with RXF 393 is 36.1 µM (inactive).
In the case of `O=C(CCc1nnc(S)[nH]1)Nc1cc(Cl)c(Cl)cc1Cl`, the GI50 with SF-539, with OVCAR-3, in the assay with ACHN, with SF-295, in the assay on HL-60 and with SK-OV-3 was > 100 µM (inactive) throughout. For the same molecule, the GI50 in the assay with A498, with LOX IMVI, in the assay on OVCAR-8, with NCI-H522, in the assay on M14 and in the assay with TK-10 was > 100 µM (inactive) throughout. For the same molecule, the GI50 in the assay with HCT-15 was above 100 µM; in the assay on KM12, > 100 µM (inactive); in the assay on SN12C it was > 100 µM (inactive); with COLO 205, > 100 µM (inactive); in the assay on SW-620, > 100 µM (inactive); in the assay with Malme-3M, > 100 µM (inactive). Besides, in the assay with RXF 393, the GI50 was > 100 µM (inactive).
Regarding `CCCCN(CCCC)CC(C(=O)Nc1ccc([N+](=O)[O-])cc1[N+](=O)[O-])/C(C)=N\NC(=O)c1ccncc1` (stereo not given), the GI50 in the assay on SF-539, with OVCAR-3, in the assay on ACHN, in the assay on SF-295, in the assay with HL-60 and with SK-OV-3 was > 100 µM (inactive) in each case. The GI50 in the assay on A498, with LOX IMVI, in the assay with OVCAR-8, in the assay on NCI-H522, with M14 and in the assay with TK-10 was > 100 µM (inactive) each time. The GI50 is above 100 µM in the assay on HCT-15; > 100 µM (inactive) with SN12C; > 100 µM (inactive) in the assay on COLO 205; > 100 µM (inactive) in the assay on SW-620; > 100 µM (inactive) in the assay with Malme-3M; > 100 µM (inactive) in the assay on RXF 393.
In the case of `COC(=O)C1=Cc2c(cc(OC)c(OC)c2OC)[C@H](c2ccc(OC)c(OC)c2OC)C1C(=O)OC` (stereo not given in full), the GI50 was > 100 µM (inactive) in the assay with SF-539; > 100 µM (inactive) in the assay with OVCAR-3; > 100 µM (inactive) in the assay with ACHN; 65.9 µM (inactive) in the assay on SF-295; 54.6 µM (inactive) with HL-60; > 100 µM (inactive) in the assay on SK-OV-3. In addition, the GI50 with A498 was > 100 µM (inactive); with LOX IMVI it was > 100 µM (inactive); in the assay on OVCAR-8, > 100 µM (inactive); in the assay on NCI-H522, 89.9 µM (inactive); in the assay on M14, > 100 µM (inactive); with TK-10, > 100 µM (inactive). Moreover, the GI50 in the assay with HCT-15 is 75 µM; with KM12, > 100 µM (inactive); in the assay on SN12C, > 100 µM (inactive); in the assay on COLO 205, 55.7 µM (inactive); in the assay with SW-620, > 100 µM (inactive); with Malme-3M, > 100 µM (inactive). The GI50 in the assay with RXF 393 is > 100 µM (inactive).
